Results reported in patent US5206435A, “4-amino-2-cyclopentene-1-methanol” (priority 1988, dated 1993).
“Also recorded” adds a separate entry of the source.

Key:
HIV [1] = experiment: anti-HIV activity in MT4 cells; assay type: cell-based; details: Human immunodeficiency virus 1, average of 10 determinations
Procedure: (1S,4R)-cis-4-[2-amino-6-(cyclopropylamino)-9H-purin-9-yl]-2-cyclopentene-1-methanol was tested for anti-HIV activity in MT4 cells according to the method described by Averett, D. R., J. Virol.

HBV [2] = experiment: activity against HBV infections (general statement); set-up: species or system hepatitis B virus
HIV [3] = experiment: activity against HIV infections (general statement)
[4] = penetration of the blood-brain barrier upon administration; assay type: in vivo
[5] = test system: bone marrow progenitor cells; experiment: toxicity against bone marrow progenitor cells; assay type: cell-based; details: compared with 3'-azido-3'-deoxythymidine (zidovudine)
HBV [6] = experiment: anti-HBV activity in the human HBV producer cell line of HepG2, 2.2.15; assay type: cell-based, hepatitis B virus; details: at 100 μM; HepG2, 2.2.15 cells
Procedure: The human HBV producer cell line of HepG2,2.2.15, described and characterised by Sells et al., PNAS 84: 1005, 1987 and J.Virol.
To test compounds for anti-HBV activity, monolayer cultures were treated with the test compound: 50-200 μM for ten days. Supernatant media containing extracellular virion DNA (Dane particles) were harvested on days three, six and ten, treated with proteinase K (1 mg/mL) and sodium dodecyl sulfate (1%), and incubated at 50° C. for one hour. DNA was extracted with equal volumes of phenol followed by chloroform and then precipitated by ammonium acetate and propanol. The DNA precipitate was dissolved and collected on nitrocellulose using the procedure of Schleicher and Schuell (S&S, 10 Optical Ave., Keene, N.H. 03431, Publication #700, 1987), and treated as described by Southern, J.Mol.Biol., 98, 503, 1975. […] After precipitation by ammonium acetate and propanol, the intracellular DNA precipitate was dissolved, cut by restriction endonuclease, Hind III, applied to agarose gel and then treated as described by Southern to determine the quantity of replicative intermediate forms. The antiviral effect of the drug was determined by measuring at least a 100-fold reduction of the amount of Dane particles extruded into the culture medium and a similar decrease in the intracellular replicative intermediates.

## Nc1nc(NC2CC2)c2ncn([C@H]3C=C[C@@H](CO)C3)c2n1 [Compound 1, (1S,4R)-cis-4-[2-amino-6-(cyclopropylamino)-9H-purin-9-yl]-2-cyclopentene-1-methanol]
HIV [1]
  IC50: 4 ± 1.4 µM
HBV [2]
  activity against HBV infections: especially potent activity; also recorded: exceptionally potent activity
HIV [3]
  activity against HIV infections: especially potent activity; also recorded: exceptionally potent activity
[4]
  blood-brain barrier penetration: capable of penetrating the blood-brain barrier
  levels of the compounds or active metabolites in the central nervous system: high levels
[5]
  toxicity against bone marrow progenitor cells: significantly lower toxicity

## CN(c1nc(N)nc2c1ncn2[C@H]1C=C[C@@H](CO)C1)C1CC1 [Compound 3, (1S,4R)-cis-4-[2-amino-6-(N-cyclopropyl-N-methylamino)-9H-purin-9-yl]-2-cyclopentene-1-methanol]
HBV [6]
  anti-HBV activity: potent anti-HBV activity
HBV [2]
  activity against HBV infections: especially potent activity
HIV [3]
  activity against HIV infections: especially potent activity
[4]
  blood-brain barrier penetration: capable of penetrating the blood-brain barrier
  levels of the compounds or active metabolites in the central nervous system: high levels
